According to PubChem BioAssay (NCI):
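Assay format: 96-well plates, 48-hour exposure. Definition used: TGI = concentration required for complete inhibition of growth.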

Key:
Experiment in all cases: NCI anticancer screen, dose series, 48 h
M14 melanoma = tested on: M14 melanoma
RPMI-8226 leukemia = tested on: RPMI-8226 leukemia
SN12C renal = tested on: SN12C renal
OVCAR-3 ovarian = tested on: OVCAR-3 ovarian
SK-MEL-5 melanoma = tested on: SK-MEL-5 melanoma
NCI-H460 lung = tested on: NCI-H460 lung
HL-60(TB) leukemia = tested on: HL-60(TB) leukemia
U251 CNS = tested on: U251 CNS
UACC-62 melanoma = tested on: UACC-62 melanoma
SF-295 CNS = tested on: SF-295 CNS
A549 NSCLC = tested on: A549 NSCLC
A498 renal = tested on: A498 renal
COLO 205 colon = tested on: COLO 205 colon
CCRF-CEM leukemia = tested on: CCRF-CEM leukemia
SF-268 CNS = tested on: SF-268 CNS
LOX IMVI melanoma = tested on: LOX IMVI melanoma
OVCAR-5 ovarian = tested on: OVCAR-5 ovarian
HOP-62 NSCLC = tested on: HOP-62 NSCLC
MOLT-4 leukemia = tested on: MOLT-4 leukemia
HCT-15 colon = tested on: HCT-15 colon
DMS 114 small cell lung = tested on: DMS 114 small cell lung
DMS 273 small cell lung = tested on: DMS 273 small cell lung
M19-MEL melanoma = tested on: M19-MEL melanoma
SNB-19 CNS = tested on: SNB-19 CNS
UACC-257 melanoma = tested on: UACC-257 melanoma
ACHN renal = tested on: ACHN renal
HCT-116 colon = tested on: HCT-116 colon
IGROV1 ovarian = tested on: IGROV1 ovarian
OVCAR-4 ovarian = tested on: OVCAR-4 ovarian
SK-MEL-28 melanoma = tested on: SK-MEL-28 melanoma
786-0 renal = tested on: 786-0 renal
SK-OV-3 ovarian = tested on: SK-OV-3 ovarian
HT29 colon = tested on: HT29 colon
LXFL 529 NSCLC = tested on: LXFL 529 NSCLC
MALME-3M melanoma = tested on: MALME-3M melanoma
SR leukemia = tested on: SR leukemia
OVCAR-8 ovarian = tested on: OVCAR-8 ovarian
UO-31 renal = tested on: UO-31 renal
HOP-92 NSCLC = tested on: HOP-92 NSCLC
TK-10 renal = tested on: TK-10 renal
SW-620 colon = tested on: SW-620 colon
NCI-H226 lung = tested on: NCI-H226 lung
NCI-H23 lung = tested on: NCI-H23 lung
K-562 leukemia = tested on: K-562 leukemia
KM20L2 colon = tested on: KM20L2 colon
HCC-2998 colon = tested on: HCC-2998 colon
CAKI-1 renal = tested on: CAKI-1 renal
DLD-1 colon = tested on: DLD-1 colon
HOP-18 NSCLC = tested on: HOP-18 NSCLC
SNB-78 CNS = tested on: SNB-78 CNS
SK-MEL-2 melanoma = tested on: SK-MEL-2 melanoma
SF-539 CNS = tested on: SF-539 CNS
KM12 colon = tested on: KM12 colon
NCI-H522 lung = tested on: NCI-H522 lung

## O=C(O)CSc1ccc2[nH]c3ccccc3c(=O)c2c1
M14 melanoma
  TGI: > 100 µM
RPMI-8226 leukemia
  TGI: > 100 µM
SN12C renal
  TGI: > 100 µM
OVCAR-3 ovarian
  TGI: > 100 µM
SK-MEL-5 melanoma
  TGI: > 100 µM
NCI-H460 lung
  TGI: > 100 µM
HL-60(TB) leukemia
  TGI: > 100 µM
U251 CNS
  TGI: > 100 µM
UACC-62 melanoma
  TGI: > 100 µM
SF-295 CNS
  TGI: > 100 µM
A549 NSCLC
  TGI: > 100 µM
A498 renal
  TGI: > 100 µM
COLO 205 colon
  TGI: > 100 µM
CCRF-CEM leukemia
  TGI: > 100 µM
SF-268 CNS
  TGI: > 100 µM
LOX IMVI melanoma
  TGI: > 100 µM
OVCAR-5 ovarian
  TGI: > 100 µM
HOP-62 NSCLC
  TGI: > 100 µM
MOLT-4 leukemia
  TGI: > 100 µM
HCT-15 colon
  TGI: > 100 µM
DMS 114 small cell lung
  TGI: > 100 µM
DMS 273 small cell lung
  TGI: > 100 µM
M19-MEL melanoma
  TGI: > 100 µM
SNB-19 CNS
  TGI: > 100 µM
UACC-257 melanoma
  TGI: > 100 µM
ACHN renal
  TGI: > 100 µM
HCT-116 colon
  TGI: > 100 µM
IGROV1 ovarian
  TGI: > 100 µM
OVCAR-4 ovarian
  TGI: > 100 µM
SK-MEL-28 melanoma
  TGI: > 100 µM
786-0 renal
  TGI: > 100 µM
SK-OV-3 ovarian
  TGI: > 100 µM
HT29 colon
  TGI: > 100 µM
LXFL 529 NSCLC
  TGI: > 100 µM
MALME-3M melanoma
  TGI: > 100 µM
SR leukemia
  TGI: > 100 µM
OVCAR-8 ovarian
  TGI: > 100 µM
UO-31 renal
  TGI: > 100 µM
HOP-92 NSCLC
  TGI: > 100 µM
TK-10 renal
  TGI: > 100 µM
SW-620 colon
  TGI: > 100 µM
NCI-H226 lung
  TGI: > 100 µM
NCI-H23 lung
  TGI: > 100 µM
K-562 leukemia
  TGI: > 100 µM
KM20L2 colon
  TGI: > 100 µM
HCC-2998 colon
  TGI: > 100 µM
CAKI-1 renal
  TGI: > 100 µM
DLD-1 colon
  TGI: > 100 µM
HOP-18 NSCLC
  TGI: > 100 µM

## CCN(CC)CCNc1ccc2ncn3c4ccccc4c(=O)c1c23
M14 melanoma
  TGI: 16.8 µM
RPMI-8226 leukemia
  TGI: > 100 µM
SN12C renal
  TGI: > 100 µM
OVCAR-3 ovarian
  TGI: 49.7 µM
SK-MEL-5 melanoma
  TGI: 13.3 µM
NCI-H460 lung
  TGI: 8.98 µM
HL-60(TB) leukemia
  TGI: > 100 µM
U251 CNS
  TGI: 17.5 µM
UACC-62 melanoma
  TGI: 14.6 µM
SNB-78 CNS
  TGI: 18.9 µM
SF-295 CNS
  TGI: 14.5 µM
A549 NSCLC
  TGI: 10.2 µM
SK-MEL-2 melanoma
  TGI: 16.3 µM
A498 renal
  TGI: 20.6 µM
COLO 205 colon
  TGI: 9.78 µM
CCRF-CEM leukemia
  TGI: > 100 µM
SF-268 CNS
  TGI: 18.7 µM
LOX IMVI melanoma
  TGI: 3.73 µM
OVCAR-5 ovarian
  TGI: 34.1 µM
HOP-62 NSCLC
  TGI: 21.6 µM
MOLT-4 leukemia
  TGI: > 100 µM
HCT-15 colon
  TGI: 16 µM
DMS 114 small cell lung
  TGI: 17.5 µM
SF-539 CNS
  TGI: 18 µM
M19-MEL melanoma
  TGI: 13.9 µM
SNB-19 CNS
  TGI: 32 µM
UACC-257 melanoma
  TGI: 15.1 µM
ACHN renal
  TGI: 12.2 µM
HCT-116 colon
  TGI: 12.8 µM
KM12 colon
  TGI: 17.6 µM
IGROV1 ovarian
  TGI: 15.7 µM
OVCAR-4 ovarian
  TGI: 9.53 µM
SK-MEL-28 melanoma
  TGI: 16.4 µM
786-0 renal
  TGI: 15.4 µM
SK-OV-3 ovarian
  TGI: 14.3 µM
HT29 colon
  TGI: 11 µM
LXFL 529 NSCLC
  TGI: 18.3 µM
MALME-3M melanoma
  TGI: 15.1 µM
SR leukemia
  TGI: > 100 µM
OVCAR-8 ovarian
  TGI: 13.3 µM
UO-31 renal
  TGI: 12.2 µM
HOP-92 NSCLC
  TGI: 10.4 µM
TK-10 renal
  TGI: 79.9 µM
SW-620 colon
  TGI: 16 µM
NCI-H226 lung
  TGI: 7.67 µM
NCI-H23 lung
  TGI: 19.8 µM
K-562 leukemia
  TGI: > 100 µM
KM20L2 colon
  TGI: 17.9 µM
CAKI-1 renal
  TGI: 6.73 µM
NCI-H522 lung
  TGI: 12.3 µM
DLD-1 colon
  TGI: 18.9 µM
HOP-18 NSCLC
  TGI: 37.4 µM
